Measured values reported in patent US20160219881A1, “HERBICIDALLY ACTIVE 2-HALOGEN-4-ALKYNYL-PHENYL-PYRAZOLIDINE-DIONE OR PYRROLIDINE-DIONE DERIVATIVES” (SYNGENTA LIMITED, priority 2013, published 2016).

Assays:
Type in all cases: in vivo
[1] = test system: Winter Wheat (variety ‘Hereward’); test: Test 1B glasshouse assay, post-emergence phytotoxicity on winter wheat; details: Triticum aestivum, 312 h, 13 days after application, read-out: Post-Emergence Herbicidal Activity (% Phytotoxicity) Winter Wheat (variety ‘Hereward’)
Procedure: Seeds of the Winter Wheat variety ‘Hereward’ were sown in standard soil (usually sandy soil) in pots. After 8 days cultivation under controlled conditions in a glasshouse (at 24/16° C., day/night; 14 hours light; 65% humidity), which is post-emergence, the plants were sprayed with an aqueous spray solution derived from the formulation of the technical active ingredient (compound) in acetone/water (50:50) solution containing 0.5% Tween 20 (polyoxyethylene sorbitan monolaurate, CAS RN 9005-64-5). The test plants were then grown on in a glasshouse under controlled conditions (at 24/16° C., day/night; 14 hours light; 65% humidity) and watered twice daily. 13 days after application of the test compounds, the test was evaluated visually for percentage phytotoxicity to each plant (where 100%=total damage to plant; 0%=no damage to plant).

Avena fatua (AVEFA) [2] = test: Test 1A glasshouse assay, pre-emergence herbicidal activity; details: 312 h, 13 days after application, read-out: Pre-Emergence Herbicidal Activity (% Phytotoxicity) AVEFA
Procedure: (§1) Seeds of a variety of test species are sown in standard soil (usually sandy soil) in pots. After cultivation for one day (pre-emergence) or after 8 days cultivation (post-emergence) under controlled conditions in a glasshouse (at 24/16° C., day/night; 14 hours light; 65% humidity), the plants are sprayed with an aqueous spray solution derived from the formulation of the technical active ingredient (compound) in acetone/water (50:50) solution containing 0.5% Tween 20 (polyoxyethylene sorbitan monolaurate, CAS RN 9005-64-5). The test plants are then grown under controlled conditions in a glasshouse (at 24/16° C., day/night; 14 hours light; 65% humidity) and watered twice daily. 13 days after application of the test compounds, for pre- and post-emergence, the test is evaluated visually for percentage phytotoxicity to each plant (where 100%=total damage to plant; 0%=no damage to plant).
(§2) Lolium perenne (LOLPE), Triticum aestivum (TRZAW, winter wheat), Alopecurus myosuroides (ALOMY), Echinochloa crus-galli (ECHCG), and Avena fatua (AVEFA). All these are grassy monocotyledonous weeds and/or (for wheat) grassy crops.

[3] = test system: Triticum aestivum (TRZAW, winter wheat); test: as above; details: 312 h, 13 days after application, read-out: Pre-Emergence Herbicidal Activity (% Phytotoxicity) TRZAW
Procedure: as §1, §2

Lolium perenne (LOLPE) [4] = test: as above; details: 312 h, 13 days after application, read-out: Pre-Emergence Herbicidal Activity (% Phytotoxicity) LOLPE
Procedure: as §1, §2

Avena fatua (AVEFA) [5] = test: Test 1A glasshouse assay, post-emergence herbicidal activity; details: 312 h, 13 days after application, read-out: Post-Emergence Herbicidal Activity (% Phytotoxicity) AVEFA
Procedure: as §1
(§3) Lolium perenne (LOLPE), Triticum aestivum (TRZAW, winter wheat, variety ‘Hereward’), Alopecurus myosuroides (ALOMY), Echinochloa crus-galli (ECHCG), and Avena fatua (AVEFA). All these are grassy monocotyledonous weeds and/or (for wheat) grassy crops.

Lolium perenne (LOLPE) [6] = test: as above; details: 312 h, 13 days after application, read-out: Post-Emergence Herbicidal Activity (% Phytotoxicity) LOLPE
Procedure: as §1, §3

[7] = test system: Triticum aestivum (TRZAW, winter wheat, variety ‘Hereward’); test: as above; details: 312 h, 13 days after application, read-out: Post-Emergence Herbicidal Activity (% Phytotoxicity) TRZAW
Procedure: as §1, §3

[8] = test system: Cloquintocet-mexyl seed-treated Winter Wheat (variety ‘Hereward’); test: Test 1B glasshouse assay, post-emergence phytotoxicity on winter wheat whose seed has been treated with cloquintocet-mexyl; details: Triticum aestivum, 312 h, seed treated with cloquintocet-mexyl 0.5 g/kg dry seed, 13 days after application, read-out: Post-Emergence Herbicidal Activity (% Phytotoxicity) Cloquintocet-mexyl seed-treated Winter Wheat (variety ‘Hereward’)
Procedure: Seeds of the Winter Wheat variety ‘Hereward’ were seed treated with a wettable powder formulation of the cereal herbicide safener, cloquintocet-mexyl, at a rate of 0.5 grams per kilogram of dry seed, prior to the initiation of glasshouse testing. Three seeds were sown per 1.5 inch plastic pot into a standard soil (usually sandy soil) at a depth of 1 cm, prior to application of the test compounds and were watered and grown under controlled conditions in a glasshouse (at 24/16° C., day/night; 14 hours light; 65% humidity). After 8 days cultivation under these controlled conditions, the plants were sprayed post-emergence with an aqueous spray solution derived from the formulation of the technical active ingredient (compound) in acetone/water (50:50) solution containing 0.5% Tween 20 (polyoxyethylene sorbitan monolaurate, CAS RN 9005-64-5). The test plants were then grown on in a glasshouse under controlled conditions (at 24/16° C., day/night; 14 hours light; 65% humidity) and watered twice daily. 13 days after application of the test compounds, the test was evaluated visually for percentage phytotoxicity to each plant (where 100%=total damage to plant; 0%=no damage to plant).

For `CC#Cc1cc(C)c(C2C(=O)C(Cc3ccccn3)N(C)C2=O)c(C)c1` (stereo not drawn) [Compound A50, 3-(2,6-dimethyl-4-prop-1-ynyl-phenyl)-1-methyl-5-(2-pyridylmethyl)pyrrolidine-2,4-dione], the inhibition at 15.625 g/ha ([1]; 15.625 g/ha) was 30%, the inhibition at 62.5 g/ha ([1]; 62.5 g/ha) was 70% and the inhibition at 250 g/ha ([1]; 250 g/ha) was 80%. The inhibition at 62.5 g/ha (Avena fatua (AVEFA) [2]; 62.5 g/ha) was 60%, the inhibition at 250 g/ha (Avena fatua (AVEFA) [2]; 250 g/ha) was 70% and the inhibition at 62.5 g/ha ([3]; 62.5 g/ha) was 70%. For the same compound, the inhibition at 250 g/ha ([3]; 250 g/ha) was 90%, the inhibition at 62.5 g/ha (Lolium perenne (LOLPE) [4]; 62.5 g/ha) was 70% and the inhibition at 250 g/ha (Lolium perenne (LOLPE) [4]; 250 g/ha) was 100%. It also gave an inhibition at 15.625 g/ha (Avena fatua (AVEFA) [5]; 15.625 g/ha) of 50%, an inhibition at 62.5 g/ha (Avena fatua (AVEFA) [5]; 62.5 g/ha) of 70% and an inhibition at 250 g/ha (Avena fatua (AVEFA) [5]; 250 g/ha) of 100%. It also gave an inhibition at 15.625 g/ha (Lolium perenne (LOLPE) [6]; 15.625 g/ha) of 40%, an inhibition at 62.5 g/ha (Lolium perenne (LOLPE) [6]; 62.5 g/ha) of 70% and an inhibition at 250 g/ha (Lolium perenne (LOLPE) [6]; 250 g/ha) of 100%. For the same compound, the inhibition at 15.625 g/ha ([7]; 15.625 g/ha) was 30%, the inhibition at 62.5 g/ha ([7]; 62.5 g/ha) was 70% and the inhibition at 250 g/ha ([7]; 250 g/ha) was 80%. It also gave an inhibition at 15.625 g/ha ([8]; 15.625 g/ha) of 0%, an inhibition at 62.5 g/ha ([8]; 62.5 g/ha) of 40% and an inhibition at 250 g/ha ([8]; 250 g/ha) of 60%.
